From paper PMC9304322, “Targeting retinoic acid receptor alpha-corepressor interaction activates chaperone-mediated autophagy and protects against retinal degeneration” (Nature Communications, 2022)

Test system: NIH3T3 cells
Assay: Microarray transcriptional changes
Type: cell-based, mouse
Set-up: Ratio of expression relative to untreated cells, Crtam (NM_019465) / Ratio of expression relative to untreated cells, 4930594C11Rik (NR_024017) / Ratio of expression relative to untreated cells, Non-coding chr6:36765550-36793825_F / Ratio of expression relative to untreated cells, Anti-sense ENSMUST00000097448 / Ratio of expression relative to untreated cells, Non-coding chr1:64232564-64349617_R / Ratio of expression relative to untreated cells, Foxa2 (NM_010446) / Ratio of expression relative to untreated cells, Non-coding chr15:83266264-83294664_F / Ratio of expression relative to untreated cells, Nqo1 (NM_008706) / Ratio of expression relative to untreated cells, Gsta4 (NM_010357) / Ratio of expression relative to untreated cells, E330014E10Rik (NM_001122668) / Ratio of expression relative to untreated cells, AU017674 (CK334688) / Ratio of expression relative to untreated cells, Defb12 (NM_152802) / Ratio of expression relative to untreated cells, Non-coding chr1:138570107-138632310_F / Ratio of expression relative to untreated cells, Non-coding chr16:39984031-40081556_R / Ratio of expression relative to untreated cells, Gm5106 (XR_168418) / Ratio of expression relative to untreated cells, Ushbp1 (NM_181418) / Ratio of expression relative to untreated cells, Non-coding chr11:70196232-70203307_R / Ratio of expression relative to untreated cells, Eno4 (NM_178689) / Ratio of expression relative to untreated cells, Non-coding chr13:64044376-64045368_R / Ratio of expression relative to untreated cells, Dsg4 (AY170623) / Ratio of expression relative to untreated cells, Stx2 (NM_007941) / Ratio of expression relative to untreated cells, Non-coding chr12:52944867-52971992_R / Ratio of expression relative to untreated cells, Htr1b (NM_010482) / Ratio of expression relative to untreated cells, Non-coding chr16:44717531-44724206_F / Ratio of expression relative to untreated cells, Non-coding chr5:54053328-54053870_F: unit not given here
Conditions: 20μM for 24 h; for Ratio of expression relative to untreated cells, 4930594C11Rik (NR_024017) / Ratio of expression relative to untreated cells, Anti-sense ENSMUST00000097448 / Ratio of expression relative to untreated cells, Crtam (NM_019465) / Ratio of expression relative to untreated cells, Defb12 (NM_152802) / Ratio of expression relative to untreated cells, Dsg4 (AY170623) / Ratio of expression relative to untreated cells, Eno4 (NM_178689) / Ratio of expression relative to untreated cells, Foxa2 (NM_010446) / Ratio of expression relative to untreated cells, Gm5106 (XR_168418) / Ratio of expression relative to untreated cells, Htr1b (NM_010482) / Ratio of expression relative to untreated cells, Non-coding chr1:64232564-64349617_R / Ratio of expression relative to untreated cells, Non-coding chr5:54053328-54053870_F / Ratio of expression relative to untreated cells, Non-coding chr6:36765550-36793825_F / Ratio of expression relative to untreated cells, Non-coding chr11:70196232-70203307_R / Ratio of expression relative to untreated cells, Non-coding chr12:52944867-52971992_R / Ratio of expression relative to untreated cells, Non-coding chr13:64044376-64045368_R / Ratio of expression relative to untreated cells, Non-coding chr15:83266264-83294664_F / Ratio of expression relative to untreated cells, Non-coding chr16:39984031-40081556_R / Ratio of expression relative to untreated cells, Non-coding chr16:44717531-44724206_F / Ratio of expression relative to untreated cells, Ushbp1 (NM_181418) / Ratio of expression relative to untreated cells, AU017674 (CK334688) / Ratio of expression relative to untreated cells, E330014E10Rik (NM_001122668) / Ratio of expression relative to untreated cells, Gsta4 (NM_010357) / Ratio of expression relative to untreated cells, Non-coding chr1:138570107-138632310_F / Ratio of expression relative to untreated cells, Nqo1 (NM_008706): NIH3T3; for Ratio of expression relative to untreated cells, 4930594C11Rik (NR_024017) / Ratio of expression relative to untreated cells, Anti-sense ENSMUST00000097448 / Ratio of expression relative to untreated cells, Crtam (NM_019465) / Ratio of expression relative to untreated cells, Defb12 (NM_152802) / Ratio of expression relative to untreated cells, Dsg4 (AY170623) / Ratio of expression relative to untreated cells, Eno4 (NM_178689) / Ratio of expression relative to untreated cells, Foxa2 (NM_010446) / Ratio of expression relative to untreated cells, Gm5106 (XR_168418) / Ratio of expression relative to untreated cells, Htr1b (NM_010482) / Ratio of expression relative to untreated cells, Non-coding chr1:64232564-64349617_R / Ratio of expression relative to untreated cells, Non-coding chr5:54053328-54053870_F / Ratio of expression relative to untreated cells, Non-coding chr6:36765550-36793825_F / Ratio of expression relative to untreated cells, Non-coding chr11:70196232-70203307_R / Ratio of expression relative to untreated cells, Non-coding chr12:52944867-52971992_R / Ratio of expression relative to untreated cells, Non-coding chr13:64044376-64045368_R / Ratio of expression relative to untreated cells, Non-coding chr15:83266264-83294664_F / Ratio of expression relative to untreated cells, Non-coding chr16:39984031-40081556_R / Ratio of expression relative to untreated cells, Non-coding chr16:44717531-44724206_F / Ratio of expression relative to untreated cells, Ushbp1 (NM_181418): direction Down; for Ratio of expression relative to untreated cells, AU017674 (CK334688) / Ratio of expression relative to untreated cells, E330014E10Rik (NM_001122668) / Ratio of expression relative to untreated cells, Gsta4 (NM_010357) / Ratio of expression relative to untreated cells, Non-coding chr1:138570107-138632310_F / Ratio of expression relative to untreated cells, Nqo1 (NM_008706): direction Up
Method: Total RNA of the treated cells was extracted using TRIzol (Invitrogen) and purified with RNeasy chromatography (Qiagen). Cy3-labeled RNA (0.6 μg) from each condition was hybridized to Agilent Mouse 8x60K. Data were processed using the oligo package and normalized using Robust Multiarray Average (RMA) method. […] Pathway analysis was performed using the STRING database ([…]).

SMILES	Ratio of expression relative to untreated cells, Stx2 (NM_007941)	Ratio of expression relative to untreated cells, 4930594C11Rik (NR_024017)	Ratio of expression relative to untreated cells, Anti-sense ENSMUST00000097448	Ratio of expression relative to untreated cells, Crtam (NM_019465)	Ratio of expression relative to untreated cells, Defb12 (NM_152802)	Ratio of expression relative to untreated cells, Dsg4 (AY170623)	Ratio of expression relative to untreated cells, Eno4 (NM_178689)	Ratio of expression relative to untreated cells, Foxa2 (NM_010446)	Ratio of expression relative to untreated cells, Gm5106 (XR_168418)	Ratio of expression relative to untreated cells, Htr1b (NM_010482)	Ratio of expression relative to untreated cells, Non-coding chr1:64232564-64349617_R	Ratio of expression relative to untreated cells, Non-coding chr5:54053328-54053870_F	Ratio of expression relative to untreated cells, Non-coding chr6:36765550-36793825_F	Ratio of expression relative to untreated cells, Non-coding chr11:70196232-70203307_R	Ratio of expression relative to untreated cells, Non-coding chr12:52944867-52971992_R	Ratio of expression relative to untreated cells, Non-coding chr13:64044376-64045368_R	Ratio of expression relative to untreated cells, Non-coding chr15:83266264-83294664_F	Ratio of expression relative to untreated cells, Non-coding chr16:39984031-40081556_R	Ratio of expression relative to untreated cells, Non-coding chr16:44717531-44724206_F	Ratio of expression relative to untreated cells, Ushbp1 (NM_181418)	other results
CC(=O)Nc1ccc(C2=Nc3ccc(Cl)cc3OC2)cc1 [CA77]	0.09232	0.0118	0.02606	0.02383	0.01656	0.02136	0.2317	0.03773	0.09934	0.04553	0.03926	0.08612	0.01829	0.1429	0.03376	0.1362	0.06682	0.07815	0.03891	0.1648	Ratio of expression relative to untreated cells, AU017674 (CK334688): 22.5451; Ratio of expression relative to untreated cells, E330014E10Rik (NM_001122668): 33.8974; Ratio of expression relative to untreated cells, Gsta4 (NM_010357): 18.7705; Ratio of expression relative to untreated cells, Non-coding chr1:138570107-138632310_F: 6.319; Ratio of expression relative to untreated cells, Nqo1 (NM_008706): 4.968
Clc1ccc2c(c1)OCC(c1ccc(-c3ccccc3)cc1)=N2 [CA39]	0.118	0.02758	0.03251	0.02443	0.01369	0.04187	0.1079	0.05303	0.2892	0.02191	0.044	0.08567	0.01728	0.1333	0.02965	0.157	0.07415	0.3908	0.01733	0.1898	Ratio of expression relative to untreated cells, AU017674 (CK334688): 18.0101; Ratio of expression relative to untreated cells, E330014E10Rik (NM_001122668): 1.584; Ratio of expression relative to untreated cells, Gsta4 (NM_010357): 2.331; Ratio of expression relative to untreated cells, Non-coding chr1:138570107-138632310_F: 7.863; Ratio of expression relative to untreated cells, Nqo1 (NM_008706): 1.3
